From US10730863B2, “Bridged bicyclic compounds as farnesoid X receptor modulators” (BRISTOL-MYERS SQUIBB COMPANY, priority 2017, dated 2020)

Target: FXR (Homo sapiens (Human), UniProt Q96RI1)
Experiment: FXR EC50 (FXR agonist activity reported with each example)
Assay type: cell-based

FXR, sequence (Q96RI1 262-486): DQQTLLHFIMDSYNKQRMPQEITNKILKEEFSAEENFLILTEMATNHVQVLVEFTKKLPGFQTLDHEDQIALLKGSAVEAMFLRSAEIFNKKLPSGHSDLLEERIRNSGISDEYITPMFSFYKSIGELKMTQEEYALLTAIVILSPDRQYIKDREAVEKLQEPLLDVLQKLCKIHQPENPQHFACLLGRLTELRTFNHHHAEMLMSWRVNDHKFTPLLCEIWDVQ

Compound | EC50 [nM]
CC(C)Oc1cc(OCC23CCC(OCc4c(-c5c(Cl)cncc5Cl)noc4C4CC4)(CC2)CC3)cc(C(=O)O)c1 [Example 326] | 17
O=C(O)c1cc(O)c2cc(OCC34CCC(OCc5c(-c6c(Cl)cncc6Cl)noc5C5CC5)(CC3)CC4)ccc2n1 [Example 327, 6-((4-((5-cyclopropyl-3-(3,5-dichloropyridin-4-yl)isoxazol-4-yl)methoxy)bicyclo[2.2.2]octan-1-yl)methoxy)-4-hydroxyquinoline-2-carboxylic acid] | 170
CC(C)Oc1cc(C(=O)O)nc2ccc(OCC34CCC(OCc5c(-c6c(Cl)cncc6Cl)noc5C5CC5)(CC3)CC4)cc12 [Example 328, 6-((4-((5-cyclopropyl-3-(3,5-dichloropyridin-4-yl)isoxazol-4-yl)methoxy)bicyclo[2.2.2]octan-1-yl)methoxy)-4-isopropoxyquinoline-2-carboxylic acid] | 15
COC1CN(c2cc(C(=O)O)nc3ccc(OCC45CCC(OCc6c(-c7c(Cl)cncc7Cl)noc6C6CC6)(CC4)CC5)cc23)C1 [Example 329, 6-((4-((5-cyclopropyl-3-(3,5-dichloropyridin-4-yl)isoxazol-4-yl)methoxy)bicyclo[2.2.2]octan-1-yl)methoxy)-4-(3-methoxyazetidin-1-yl)quinoline-2-carboxylic acid] | 1400
CN(C)c1cc(C(=O)O)nc2ccc(OCC34CCC(OCc5c(-c6c(Cl)cncc6Cl)noc5C5CC5)(CC3)CC4)cc12 [Example 330] | 1500
O=C(O)c1cc(OC2CC2)c2cc(OCC34CCC(OCc5c(-c6c(Cl)cncc6Cl)noc5C5CC5)(CC3)CC4)ccc2n1 [Example 331, 4-cyclopropoxy-6-((4-((5-cyclopropyl-3-(3,5-dichloropyridin-4-yl)isoxazol-4-yl)methoxy)bicyclo[2.2.2]octan-1-yl)methoxy)quinoline-2-carboxylic acid] | 23
CS(=O)(=O)c1cc(C(=O)O)nc2ccc(OCC34CCC(OCc5c(-c6c(Cl)cncc6Cl)noc5C5CC5)(CC3)CC4)cc12 [Example 332, 6-((4-((5-cyclopropyl-3-(3,5-dichloropyridin-4-yl)isoxazol-4-yl)methoxy)bicyclo[2.2.2]octan-1-yl)methoxy)-4-(methylsulfonyl)quinoline-2-carboxylic acid] | 830
CC(C)Oc1cc(OCC23CCC(OCc4c(-c5c(Cl)cncc5Cl)noc4C4CC4)(CC2)CC3)cnc1C(=O)O [Example 334, 5-((4-((5-cyclopropyl-3-(3,5-dichloropyridin-4-yl)isoxazol-4-yl)methoxy)bicyclo[2.2.2]octan-1-yl)methoxy)-3-isopropoxypicolinic acid] | 21
COc1cc(OCC23CCC(OCc4c(-c5c(Cl)cncc5Cl)noc4C4CC4)(CC2)CC3)cnc1C(=O)O [Example 335, 5-((4-((5-cyclopropyl-3-(3,5-dichloropyridin-4-yl)isoxazol-4-yl)methoxy)bicyclo[2.2.2]octan-1-yl)methoxy)-3-methoxypicolinic acid] | 170
COCCOc1cc(OCC23CCC(OCc4c(-c5c(Cl)cncc5Cl)noc4C4CC4)(CC2)CC3)cnc1C(=O)O [Example 336] | 160
O=C(O)c1ncc(OCC23CCC(OCc4c(-c5c(Cl)cncc5Cl)noc4C4CC4)(CC2)CC3)cc1OCC1CC1 [Example 337] | 27
CCCc1cc(C(=O)O)nc2ccc(OCC34CCC(OCc5c(-c6c(Cl)cncc6Cl)noc5C5CC5)(CC3)CC4)cc12 [Example 338, 6-((4-((5-cyclopropyl-3-(3,5-dichloropyridin-4-yl)isoxazol-4-yl)methoxy)bicyclo[2.2.2]octan-1-yl)methoxy)-4-propylquinoline-2-carboxylic acid] | 17
O=C(O)c1ncc(OCC23CCC(OCc4c(-c5c(Cl)cncc5Cl)noc4C4CC4)(CC2)CC3)cc1OC1CCC1 [Example 339] | 28
O=C(O)c1ncc(OCC23CCC(OCc4c(-c5c(Cl)cncc5Cl)noc4C4CC4)(CC2)CC3)cc1OC1CC1 [Example 340] | 46
CC(Oc1ccc(OCC23CCC(OCc4c(-c5c(Cl)cncc5Cl)noc4C4CC4)(CC2)CC3)cc1)C(=O)O (stereo not drawn) [Example 341] | 1500
COc1ccc(C(=O)O)c2ccc(OCC34CCC(OCc5c(-c6c(Cl)cncc6Cl)noc5C5CC5)(CC3)CC4)nc12 [Example 342] | 33
O=C(O)c1cccc2nc(OCC34CCC(OCc5c(-c6c(Cl)cncc6Cl)noc5C5CC5)(CC3)CC4)ccc12 [Example 343] | 75
O=C(O)c1cc(OC2CCC2)c2cc(OCC34CCC(OCc5c(-c6c(Cl)cncc6Cl)noc5C5CC5)(CC3)CC4)ccc2n1 [Example 344] | 17
CCOc1cc(C(=O)O)nc2ccc(OCC34CCC(OCc5c(-c6c(Cl)cncc6Cl)noc5C5CC5)(CC3)CC4)cc12 [Example 345] | 14
O=C(O)c1cc(OCC2CC2)c2cc(OCC34CCC(OCc5c(-c6c(Cl)cncc6Cl)noc5C5CC5)(CC3)CC4)ccc2n1 [Example 346] | 18
CCc1cc(C(=O)O)nc2ccc(OCC34CCC(OCc5c(-c6c(Cl)cncc6Cl)noc5C5CC5)(CC3)CC4)cc12 [Example 347] | 24
Cc1cc(OCC23CCC(OCc4c(-c5c(Cl)cncc5Cl)noc4C4CC4)(CC2)CC3)cnc1C(=O)O [Example 348, 5-((4-((5-cyclopropyl-3-(3,5-dichloropyridin-4-yl)isoxazol-4-yl)methoxy)bicyclo[2.2.2]octan-1-yl)methoxy)-3-methylpicolinic acid] | 59
O=C(O)c1ccc(OC2CCC2)c2nc(OCC34CCC(OCc5c(-c6c(Cl)cncc6Cl)noc5C5CC5)(CC3)CC4)ccc12 [Example 349, 8-cyclobutoxy-2-((4-((5-cyclopropyl-3-(3,5-dichloropyridin-4-yl)isoxazol-4-yl)methoxy)bicyclo[2.2.2]octan-1-yl)methoxy)quinoline-5-carboxylic acid] | 130
COc1cncc(Cl)c1-c1noc(C2CC2)c1COC12CCC(COc3cc(OC)c4cc(C(=O)O)ccc4n3)(CC1)CC2 [Example 350, 2-((4-((3-(3-chloro-5-methoxypyridin-4-yl)-5-cyclopropylisoxazol-4-yl)methoxy)bicyclo[2.2.2]octan-1-yl)methoxy)-4-methoxyquinoline-6-carboxylic acid] | 890
COc1cncc(Cl)c1-c1noc(C2CC2)c1COC12CCC(COc3ccc4cc(C(=O)O)cc(C5CC5)c4n3)(CC1)CC2 [Example 351, 2-((4-((3-(3-chloro-5-methoxypyridin-4-yl)-5-cyclopropylisoxazol-4-yl)methoxy)bicyclo[2.2.2]octan-1-yl)methoxy)-8-cyclopropylquinoline-6-carboxylic acid] | 23
O=C(O)c1cccc2cc(OCC34CCC(OCc5c(-c6c(Cl)cncc6Cl)noc5C5CC5)(CC3)CC4)cnc12 [Example 352, 3-((4-((5-cyclopropyl-3-(3,5-dichloropyridin-4-yl)isoxazol-4-yl)methoxy)bicyclo[2.2.2]octan-1-yl)methoxy)quinoline-8-carboxylic acid] | 55
O=C(O)c1cc(OCC2CCC2)c2cc(OCC34CCC(OCc5c(-c6c(Cl)cncc6Cl)noc5C5CC5)(CC3)CC4)ccc2n1 [Example 353] | 11
